T1: GST:PK50 (Trypanosoma brucei, UniProt Q26801)
T1 sequence (Q26801 1-437): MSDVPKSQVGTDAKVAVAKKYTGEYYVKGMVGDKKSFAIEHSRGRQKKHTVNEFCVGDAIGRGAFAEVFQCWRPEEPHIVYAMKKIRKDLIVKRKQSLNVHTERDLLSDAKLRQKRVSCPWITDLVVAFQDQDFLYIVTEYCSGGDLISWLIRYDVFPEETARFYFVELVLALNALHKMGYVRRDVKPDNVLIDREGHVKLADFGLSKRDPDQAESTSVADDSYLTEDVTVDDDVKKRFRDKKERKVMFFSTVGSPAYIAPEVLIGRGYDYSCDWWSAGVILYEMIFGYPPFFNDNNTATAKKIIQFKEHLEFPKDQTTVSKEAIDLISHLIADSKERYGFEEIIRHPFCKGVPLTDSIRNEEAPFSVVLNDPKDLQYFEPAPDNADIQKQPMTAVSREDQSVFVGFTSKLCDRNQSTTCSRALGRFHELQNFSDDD


Key:
[1] = biological target: T1, GST:PK50; assay: radiometric filter plate kinase assay, [gamma-33P]ATP, 10-point dilution; format: biochemical
[2] = biological target: GST:PK53 (Trypanosoma brucei, UniProt Q582J2, E440D); details: ATP at its Km; peptide KKLNRTLSFAEPG; Tris-HCl pH 7.0, 1 mM MnCl2, 1% DMSO
[3] = substrate: Nc1ncnc2c1ncn2[C@@H]1O[C@H](COP(=O)(O)OP(=O)(O)OP(=O)(O)O)[C@@H](O)[C@H]1O; assay: purified protein; details: co-substrate peptide … varied, 15 nM enzyme, Tris-HCl pH 7.9, 3 mM MnCl2

Molecule | IC50 [1] | IC50 [2] | Km [3]
CN[C@@H]1C[C@H]2O[C@@](C)([C@@H]1OC)n1c3ccccc3c3c4c(c5c6ccccc6n2c5c31)C(=O)NC4 [staurosporine] | 216 ± 47 nM | 4.6 ± 0.3 nM | 
GST:PK50 (Trypanosoma brucei) (protein) MSDVPKSQVGTDAKVAVAKKYTGEYYVKGMVGDKKSFAIEHSRGRQKKHTVNEFCVGDAIGRGAFAEVFQCWRPEEPHIVYAMKKIRKDLIVKRKQSLNVHTERDLLSDAKLRQKRVSCPWITDLVVAFQDQDFLYIVTEYCSGGDLISWLIRYDVFPEETARFYFVELVLALNALHKMGYVRRDVKPDNVLIDREGHVKLADFGLSKRDPDQAESTSVADDSYLTEDVTVDDDVKKRFRDKKERKVMFFSTVGSPAYIAPEVLIGRGYDYSCDWWSAGVILYEMIFGYPPFFNDNNTATAKKIIQFKEHLEFPKDQTTVSKEAIDLISHLIADSKERYGFEEIIRHPFCKGVPLTDSIRNEEAPFSVVLNDPKDLQYFEPAPDNADIQKQPMTAVSREDQSVFVGFTSKLCDRNQSTTCSRALGRFHELQNFSDDD |  |  | 25.7 ± 4.8 µM

Source: article PMC2865264 (The Journal of Biological Chemistry, 2010)
